These results are taken from US9951077B2, “Aminopyridazinone compounds as protein kinase inhibitors” (ETERNITY BIOSCIENCE INC., priority 2014, dated 2018).

Series [1] concerns TMD-8 xenograft. In words: In vivo efficacy study, TMD-8 xenograft model. As to conditions: TMD-8 xenograft in NOD-SCID nude mice, given orally QD or BID for 14 consecutive days. As to the method:
The in vivo antitumor activity was assessed with TMD-8 xenograft model. In brief, TMD-8 cells were implanted into NOD-SCID nude mice and allowed to grow to the designated size (c.a. 100-200 mm^3) before treatment. The tested articles were given orally at various dose levels once daily (QD) or twice a day (BID) for 14 consecutive days. Tumor and body weight were measured during the experiments, and tumor volumes were estimated from the formula [length/2]×[width^2]. Established tumors in each animal were individually normalized to their size at the start of the experiment, and the data were calculated as the change in tumor volume relative to the day 0 volume by the use of the relative tumor volume (RTV) formula, RTV=TVx/TV0, where TVx is the tumor volume on any day and TV0 is the tumor volume at the initiation of dosing.

Series [2] is described as follows: Pharmacokinetic test in dog. The class given is in vivo, Beagle dogs. As to conditions: for half-life: read-out: t½ (converted). As for the experimental part: (§1) The tested articles were given to Sprague-Dawley rats or Beagle dogs by intravenous and oral administration. Plasma samples were prepared from blood samples which were collected at various time points. The plasma concentrations of the tested articles were determined by specific LC-MS/MS analytical methods. Pharmacokinetic parameters were calculated with WinNonlin®. The pharmacokinetic test results for the example compounds are shown in Table 5 (rat) and Table 6 (dog) below.

The nature of series [3]: Pharmacokinetic test in rat. The class given is in vivo, Sprague-Dawley rats. As to conditions: for half-life: read-out: t½ (converted). As for the experimental part: as §1
Series [4] has as its target Btk (Homo sapiens (Human), UniProt Q06187). The series can be described thus: Btk kinase assay (ADP-Glo). The class given is biochemical. As to conditions: ATP 1.2 μM, 60 minutes, room temperature; read-out: BTK enzyme IC50. A digest of the protocol: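 Recombinant human Btk (2 ng/μl) with poly GT peptide (0.3 μM), ATP (1.2 μM), MnCl2 (1.4 mM) and DTT (40 nM), 60 min at room temperature (22±1° C.). ADP formed was read by ADP-Glo luminescence after ATP depletion. IC50 from log concentration versus percent inhibition relative to DMSO vehicle.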
For orientation: ADP-Glo turns the ADP formed in a reaction into a luminescent signal.

Setting [5] is: Sprague-Dawley, plasma, IV 0.5 mg/kg.
[6] abbreviates: Sprague-Dawley, plasma, PO 5 mg/kg.

In general, AUC(0-t) refers to exposure summed from dosing to a finite time, without extrapolation to infinity. As a reminder, the Cmax is the highest concentration seen after dosing. As usually defined, the IC50 is the concentration that inhibits the measured activity by half.

Btk, sequence (Q06187 whole entry): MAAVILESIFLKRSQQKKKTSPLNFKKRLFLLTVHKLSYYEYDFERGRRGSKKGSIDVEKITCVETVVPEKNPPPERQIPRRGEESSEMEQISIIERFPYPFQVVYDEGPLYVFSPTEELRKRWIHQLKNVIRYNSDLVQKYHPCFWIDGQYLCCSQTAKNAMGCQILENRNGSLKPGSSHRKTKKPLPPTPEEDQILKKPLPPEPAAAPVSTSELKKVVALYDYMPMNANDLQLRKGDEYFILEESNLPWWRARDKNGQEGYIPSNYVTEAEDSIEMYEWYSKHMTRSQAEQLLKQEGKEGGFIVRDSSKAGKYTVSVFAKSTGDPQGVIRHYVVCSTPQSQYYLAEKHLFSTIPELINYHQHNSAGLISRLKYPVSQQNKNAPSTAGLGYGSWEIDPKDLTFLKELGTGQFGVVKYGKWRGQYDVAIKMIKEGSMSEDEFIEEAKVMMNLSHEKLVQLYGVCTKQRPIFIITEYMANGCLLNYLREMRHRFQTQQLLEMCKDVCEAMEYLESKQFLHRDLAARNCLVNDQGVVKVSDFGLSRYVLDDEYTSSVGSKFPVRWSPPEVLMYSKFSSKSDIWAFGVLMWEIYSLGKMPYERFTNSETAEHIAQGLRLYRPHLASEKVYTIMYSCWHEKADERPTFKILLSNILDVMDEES

For `C=CC(=O)N1CCC[C@@H](n2cc(-c3ccc(Oc4c(F)cccc4F)cc3)c3c(N)n[nH]c(=O)c32)C1` [Example 58, (R)-1-(1-acryloylpiperidin-3-yl)-4-amino-3-(4-(2,6-difluorophenoxy)phenyl)-1H-pyrrolo[2,3-d]pyridazin-7(6H)-one], in series [1], the “tumor growth inhibition rate” value is reported as 98%. For the same molecule, the AUC(0-t) turned out to be 94.4 ng·h/mL in series [2] (Beagle, plasma, IV 0.2 mg/kg); 1090 ng·h/mL in series [2] (Beagle, plasma, PO 2 mg/kg); 1510 ng·h/mL in series [3] (setting [5]); 6840 ng·h/mL in series [3] (setting [6]). Also, the Cmax was determined as 145 ng/mL in series [2] (Beagle, plasma, IV 0.2 mg/kg); 656 ng/mL in series [2] (Beagle, plasma, PO 2 mg/kg); 1510 ng/mL in series [3] (setting [5]); 1300 ng/mL in series [3] (setting [6]). The half-life in series [2] (Beagle, plasma, IV 0.2 mg/kg) is 25.8 min; in series [2] (Beagle, plasma, PO 2 mg/kg), 39.6 min; in series [3] (setting [5]) it was 38.4 min; in series [3] (setting [6]), 245 min. The bioavailability in series [2] (Beagle, plasma, PO 2 mg/kg) was 114%; in series [3] (setting [6]), 51.9%. Moreover, the Vd/F in series [2] (Beagle, plasma, PO 2 mg/kg, read-out: Vz/F) was determined as 1.75 L/kg; in series [3] (Sprague-Dawley, plasma, PO 5 mg/kg, read-out: Vz/F), 3.83 L/kg. Moreover, the CLz/F in series [2] (IV 0.2 mg/kg) came out at 35.4 mL/min/kg; in series [2] (PO 2 mg/kg), 31.1 mL/min/kg; in series [3] (IV 0.5 mg/kg), 5.45 mL/min/kg; in series [3] (PO 5 mg/kg), 11.0 mL/min/kg. Also, the Vz/F stood at 1.281 L/kg in series [2] (IV 0.2 mg/kg) and 0.301 L/kg in series [3] (IV 0.5 mg/kg). In series [4], the IC50 was no more than 10 nM.
